{"source": "patent US7723070B2", "about": "“Overexpression of aminoacyl-tRNA synthetases for efficient production of engineered proteins containing amino acid analogues” (California Institute of Technology, priority 2000, dated 2010)", "data": [{"test_system": "B834(DE3) or CAG18491 hosts with pQE15/pREP4 or pQE15-MRS/pREP4", "assay": "Translational activity: mDHFR synthesis, statements covering several bacterial hosts (with pQE15 or pQE15-MRS)", "format": "cell-based, E. coli", "conditions": "amino acids at 60 mg/liter, both bacterial hosts", "description": "Methionine analogues were synthesized via alkylation of diethylacetamidomalonate, as previously described (As described in Example I, infra; J. C. M. van Hest, D. A. Tirrell, FEBS Lett. 1998, 428, 68-70). Cultures of B834(DE3)/pQE15-MRS/pREP4 or B834(DE3)/pQE15/pREP4 or CAG18491/pQE15-MRS/pREP4 or CAG18491/pQE15/pREP4 in M9AA media were grown to an optical density of 0.90, and the cells were sedimented by centrifugation. The M9AA medium was prepared by supplementing sterile M9 medium with […] of each of the amino acids, 1 mM MgSO4, 0.2 wt % glucose, 1 mg/ml thiamine chloride, and […] calcium chloride. The antibiotics ampicillin and kanamycin were added at concentrations of 200 mg/l and 35 mg/l, respectively.\nCells were washed three times with M9 salts and resuspended to an optical density of 0.90 in M9 test media containing 19 amino acids plus 1) neither methionine nor analogue (negative control); 2) methionine (60 mg/liter, positive control); or 3) an analogue of interest (60 mg/liter). To test the effect of increasing the level of supplementation of the analogues, a set of experiments was also conducted in which the medium was supplemented with 500 mg/liter of methionine or the amino acid analogue. Expression of mDHFR was induced by addition of 0.4 mM isopropyl β-D-thiogalactopyranoside (IPTG), and protein synthesis was monitored after 4.5 hours.", "values": [{"molecule": "NC(CCCC(F)(F)F)C(=O)O", "note": "(racemic) [Analogue 6, DL-6,6,6-trifluoro-2-amino hexanoic acid]", "target protein mDHFR in SDS-PAGE": "not observed"}, {"molecule": "C=CCOC[C@H](N)C(=O)O", "note": "(racemic) [Analogue 10, o-allylserine]", "target protein mDHFR in SDS-PAGE": "not observed"}, {"molecule": "C#CCC(N)C(=O)O", "note": "(stereo not drawn) [Analogue 13, propargylglycine]", "target protein mDHFR in SDS-PAGE": "not observed"}]}]}
